Converted amounts (≈) assume the structure as drawn. “And” between values parts separate entries of the source, which are not always exact repeats. Equal values may be shown once.

What is called IC50 is the concentration at which inhibition is half-maximal.

One data set relates to Tbb-5FURes. In words: microbe, parasite or virus in culture. Format: cell-based, Trypanosoma brucei brucei. Particulars: Trypanosoma brucei, read-out: T. Brucei, EC50, Tbb-5FURes.
The next data set has as its system T. brucei B48. In words: microbe, parasite or virus in culture. Particulars: for EC50: Trypanosoma brucei, read-out: T. Brucei, EC50, B48. Format: cell-based, Trypanosoma brucei brucei.
For the next data set, the system named is M. tuberculosis H37Rv. In words: microbe, parasite or virus in culture. It is filed as cell-based. The note with it: Mycobacterium tuberculosis, control drugs at critical concentrations.
Data set [1] has as its system M. tuberculosis ATCC 25,177 (H37Ra). In words: microbe, parasite or virus in culture. Particulars: for MIC: Mycobacterium tuberculosis, read-out: M. Tuberculosis 25,177 MIC. It is filed as cell-based, Mycobacterium tuberculosis.
The next data set relates to T. vaginalis strain G3. In words: resorufin-based EC50 assay, T. vaginalis. The note with it: Trichomonas vaginalis, read-out: Trichomonas Vaginalis, EC50.
A further data set relates to U-937 cells. In words: U-937 cytotoxicity (XTT). Format: cell-based. Particulars: 6 days incubation. As for the experimental part: The U-937 cells used in the cytotoxicity evaluation were obtained from the AIDS Research and Reference Program. The cells were cultured as indicated by the supplier in RPMI-1640 supplemented with 10% heat inactivated FBS, 1% penicillin/streptomycin solution, and 1% L-glutamine.
U-937 cells plated at 2.5 × 10^3 cells/well in a volume of 100 µL were incubated with serially diluted test compounds in a volume of 100 µL for 6 days at 37 °C/5% CO2. Following the incubation, the cells were stained by adding 50 μL tetrazolium dye XTT (Sigma) solution at 5 mg/mL to determine cellular viability and read at 460/650 nm on a spectrophotometer. Toxicity values were calculated using linear regression analysis.
(Formazan colour is commonly taken as a measure of viable cells.)

For data set [2], the system named is T. b. brucei strain Lister 427 (s427-WT). In words: resazurin EC50 assay, T. b. brucei wild-type bloodstream forms. The note with it: 48 h + 24 h resazurin, average and SEM, at least three determinations, NE = no effect on cell viability at 100 µM; for EC50: Trypanosoma brucei, 72 h. Format: cell-based, Trypanosoma brucei brucei.
The subject of data set [3] is L. mexicana 5FURes (Lmex5FURes). In words: microbe, parasite or virus in culture. Particulars: Leishmania mexicana, read-out: L. Mexicana 5FUR, EC50.
Procedure: Promastigotes of Leishmania mexicana strain MNY/BZ/62/M379 was cultured in a minimal essential medium, HO-MEMO-MEME, supplemented with 10% FBS and 1% of a penicillin/streptomycin solution (Gibco) as described previously [39] at 25 °C. The L. mexicana 5FURes strain was the same strain but adapted in vitro to high levels of 5FU exactly as described for T. brucei [12].
The resazurin assay for L. mexicana promastigotes was performed exactly as for T. b. brucei, except that incubation times of 72 and 48 h were used before and after the addition of resazurin, respectively, due to the slower metabolism of the dye by Leishmania promastigotes [42].
For the next data set, the system named is T. brucei 2T1 PYR6-5 −/−. In words: microbe, parasite or virus in culture. The note with it: Trypanosoma brucei, read-out: T. Brucei, EC50, 2T1 PYR6-5 −/−. Format: cell-based, Trypanosoma brucei brucei.
In another data set the test system is M. tuberculosis MS-115. In words: microbe, parasite or virus in culture. Format: cell-based. Particulars: Mycobacterium tuberculosis, MS115, read-out: M. Tuberculosis MS-115 MIC.
Another data set relates to M. smegmatis 700,084. It is filed as cell-based, Mycobacterium smegmatis. Particulars: tested up to 250 µM.
Data set [4] deals with Staphylococcus aureus NRS384. In words: microbe, parasite or virus in culture. It is filed as cell-based. The note with it: NRS384, read-out: extrapolated IC50, growth of S. aureus NRS384.

Procedure for T. vaginalis strain G3: The standard metronidazole-susceptible T. vaginalis strain G3was originally obtained from Jeremy Mottram (University of York, UK) and cultured in a modification of Diamond′s medium supplemented with 10% horse serum with a composition as described [40] at 37 °C under anaerobic conditions. Cultures were passaged daily.
Drugs were tested on T. vaginalis using a resorufin-based assay that we developed [40, 43]. The assay is based on the principle that live T. vaginalis trophozoites are, almost uniquely, able to reduce fluorescent, pink resorufin to non-fluorescent, colorless dihydro-resorufin. This conversion was measured as a dose-dependent increase in fluorescence (with dead cells unable to metabolize the fluorophore; λexc 544 nm, λem 599 nm), resulting in a sigmoid curve with variable slope that yielded EC50 values (Prism 6.0). Plates contained 11 doubling dilutions (1 row) and no-drug control for each compound starting at 100 µM under anaerobic conditions as described [40, 43]. Fluorescence was determined in a PheraStar plate reader (BMG Labtech).

Regarding `CCCCCCCCCCC#Cc1cn([C@H]2C=C[C@@H](O)C2)c(=O)n([C@H]2C=C[C@@H](O)C2)c1=O` [Compound 2, 1-[4′-Hydroxy-2′-cyclopenten-1′-yl]-3-(4′′-hydroxy-2′′-cyclopent-en-1′′-yl)-5-dodecynyluracil], the EC50 is 5.2 ± 0.6 µM with Tbb-5FURes; 4 ± 0.4 µM with T. brucei B48; 48.9 ± 0.05 µM in the data set with T. vaginalis strain G3; 3.1 µM in data set [2]; 51.1 ± 0.6 µM in data set [3]; 5.5 ± 0.5 µM in the data set with T. brucei 2T1 PYR6-5 −/−. Moreover, the MIC against M. tuberculosis H37Rv was over 50 µg/mL; in data set [1], 31 µM and 13.6 µg/mL. Also, the “U-937 Cells TC50” value in the data set with U-937 cells amounted to 22.1 µM.

Regarding `CCCCCCCCC#Cc1cn([C@H]2C=C[C@@H](O)C2)c(=O)n([C@H]2C=C[C@@H](O)C2)c1=O` [Compound 3, 1-[4′-Hydroxy-2′-cyclopenten-1′-yl]-3-(4′′-hydroxy-2′′-cyclopent-en-1′′-yl)-5-decynyluracil], the EC50 with Tbb-5FURes was 19.9 ± 0.7 µM; with T. brucei B48 it was 14.7 ± 0.2 µM; with T. vaginalis strain G3, 32 ± 0.001 µM; in data set [2] it was about 13 µM; in [3], 25.8 ± 0.4 µM; in the data set with T. brucei 2T1 PYR6-5 −/−, 17.1 ± 1.2 µM. In addition, the MIC was 50 µg/mL (≈ 121 µM) against M. tuberculosis H37Rv; 31 µM and 12.8 µg/mL in [1]; 50 µg/mL (≈ 121 µM) in the data set on M. tuberculosis MS-115. Besides, in the data set on U-937 cells, the “U-937 Cells TC50” value is 2.2 µM.

Consider `CCCCCCC#Cc1cn([C@H]2C=C[C@@H](O)C2)c(=O)n([C@H]2C=C[C@@H](O)C2)c1=O` [Compound 4, 1-[4′-Hydroxy-2′-cyclopenten-1′-yl]-3-(4′′-hydroxy-2′′-cyclopent-en-1′′-yl)-5-octynyluracil], for which the EC50 with Tbb-5FURes is 24.9 ± 0.5 µM; with T. brucei B48, 17.7 ± 1 µM; in the data set with T. vaginalis strain G3 it was 54.1 ± 0.002 µM; in [2], about 13 µM; in [3], 47.3 ± 0.4 µM; with T. brucei 2T1 PYR6-5 −/−, 17.5 ± 1.2 µM. Also, the MIC against M. tuberculosis H37Rv is over 50 µg/mL; in [1], 31 µM and 11.9 µg/mL. Moreover, the “U-937 Cells TC50” value in the data set on U-937 cells is reported as 73.8 µM.

For `CCCC#Cc1cn([C@H]2C=C[C@@H](O)C2)c(=O)n([C@H]2C=C[C@@H](O)C2)c1=O` [Compound 5, 1-[4′-Hydroxy-2′-cyclopenten-1′-yl]-3-(4′′-hydroxy-2′′-cyclopent-en-1′′-yl)-5-pentynyluracil], the EC50 with Tbb-5FURes was over 100 µM; with T. brucei B48 it was over 100 µM; in the data set on T. vaginalis strain G3, 73.5 ± 0.08 µM; in [2], over 100 µM; in data set [3], over 100 µM; with T. brucei 2T1 PYR6-5 −/− it was over 100 µM. Further, the MIC in [1] was > 1000 µM and > 342 µg/mL. Further, the “U-937 Cells TC50” value with U-937 cells turned out to be 88.5 µM.

In the case of `O=c1c(C#Cc2ccccc2)cn([C@H]2C=C[C@@H](O)C2)c(=O)n1[C@H]1C=C[C@@H](O)C1` [Compound 6], the EC50 is over 100 µM in the data set on Tbb-5FURes; over 100 µM with T. brucei B48; 70.2 ± 0.06 µM in the data set on T. vaginalis strain G3; over 100 µM in [2]; over 100 µM in data set [3]; over 100 µM in the data set on T. brucei 2T1 PYR6-5 −/−. Moreover, in [1], the MIC was 500 µM and 188 µg/mL. The “U-937 Cells TC50” value in the data set on U-937 cells worked out at 166.2 µM.

Turning to `CC(C)(C)c1ccc(C#Cc2cn([C@H]3C=C[C@@H](O)C3)c(=O)n([C@H]3C=C[C@@H](O)C3)c2=O)cc1` [Compound 7, 1-[4′-Hydroxy-2′-cyclopenten-1′-yl]-3-(4′′-hydroxy-2′′-cyclopent-en-1′′-yl)-5-(4-tertbutylphenynylethenyl)uracil], the EC50 in the data set with Tbb-5FURes was 12.6 ± 1.4 µM; with T. brucei B48, 10.8 ± 0.6 µM; with T. vaginalis strain G3, 52.8 ± 0.007 µM; in data set [2], about 8 µM; in [3], 45.3 ± 2.2 µM; with T. brucei 2T1 PYR6-5 −/−, 14.7 ± 0.4 µM. Moreover, the MIC in the data set with M. tuberculosis H37Rv is over 50 µg/mL; in data set [1], 62.5 µM and 27 µg/mL. The “concentration completely inhibiting growth of M. smegmatis” value with M. smegmatis 700,084 is 250 µM. The “U-937 Cells TC50” value with U-937 cells was found to be 22.5 µM.

With `CCCCCc1ccc(C#Cc2cn([C@H]3C=C[C@@H](O)C3)c(=O)n([C@H]3C=C[C@@H](O)C3)c2=O)cc1` [Compound 8], the EC50 in the data set on Tbb-5FURes is 12 ± 1.2 µM; in the data set with T. brucei B48 it was 11 ± 0.6 µM; in the data set with T. vaginalis strain G3, 36.9 ± 0.18 µM; in data set [2], about 8 µM; in data set [3] it was 27.5 ± 2.3 µM; in the data set on T. brucei 2T1 PYR6-5 −/− it was 15.4 ± 0.7 µM. For the same molecule, the MIC is over 50 µg/mL in the data set with M. tuberculosis H37Rv; 31 µM and 13.9 µg/mL in [1]. Further, the “concentration completely inhibiting growth of M. smegmatis” value in the data set with M. smegmatis 700,084 was found to be 250 µM. For the same molecule, the “U-937 Cells TC50” value with U-937 cells was determined as 17.3 µM.

Consider `O=C(NCC#Cc1cn([C@H]2C=C[C@@H](O)C2)c(=O)n([C@H]2C=C[C@@H](O)C2)c1=O)C(F)(F)F` [Compound 10, 1-[4′-Hydroxy-2′-cyclopenten-1′-yl]-3-(4′′-hydroxy-2′′-cyclopent-en-1′′-yl)-5-(trifluoroacetamidepropynyl)uracil], for which the EC50 with Tbb-5FURes was over 100 µM; in the data set with T. brucei B48, over 100 µM; in the data set on T. vaginalis strain G3, 69.2 ± 0.05 µM; in data set [2], over 100 µM; in data set [3], over 100 µM; in the data set with T. brucei 2T1 PYR6-5 −/−, over 100 µM. Moreover, the MIC in [1] was > 1000 µM and > 425 µg/mL. In addition, the IC50 in data set [4] was about 100 µM. Further, the “U-937 Cells TC50” value with U-937 cells is listed as 78.0 µM. Moreover, in [2], the “T. Brucei, EC50, S427-WT” value was “little or no activity at the highest concentration tested”.

Take `CCCCCCCCCc1ccc(OCCOCCOCCOCCOCCOCCOCCOCCOCCO)cc1` [Compound N9, Nonoxynol-9, reference compound]: the “U-937 Cells TC50” value with U-937 cells (positive control) was 6.5 µg/mL; in the data set with U-937 cells (positive control, listed as Nonoxynol-9), “toxic at the expected concentration”.

On to `NNC(=O)c1ccncc1` [Isoniazid, reference compound], for which the MIC with M. tuberculosis H37Rv was 0.1 µg/mL (≈ 0.729 µM); with M. tuberculosis MS-115 it was over 100 µg/mL.

Turning to `NC[C@H]1O[C@H](O[C@H]2[C@H](O)[C@@H](O[C@H]3O[C@H](CO)[C@@H](O)[C@H](N)[C@H]3O)[C@H](N)C[C@@H]2N)[C@H](O)[C@@H](O)[C@@H]1O` [Kanamycin, reference compound], in [1], the “M. Tuberculosis 25,177 MIC” value is 6.5 µM and 3.13 µg/mL.

For `C[C@H]1COc2c(N3CCN(C)CC3)c(F)cc3c(=O)c(C(=O)O)cn1c23` [Levofloxacin, reference compound], the MIC in the data set with M. tuberculosis H37Rv and with M. tuberculosis MS-115 was 1.5 µg/mL (≈ 4.15 µM) throughout.

As to `Cc1ncc([N+](=O)[O-])n1CCO` [Metronidazole, reference compound], in the data set on T. vaginalis strain G3, the EC50 is 0.53 ± 0.1 µM.

On to `N=C(N)c1ccc(OCCCCCOc2ccc(C(=N)N)cc2)cc1` [Pentamidine, reference compound], for which the EC50 in the data set with Tbb-5FURes is 0.0034 ± 0.0004 µM; with T. brucei B48, 0.71 ± 0.03 µM; in data set [2], 0.0032 ± 0.0004 µM; in [3] it was 1.63 ± 0.18 µM; in the data set with T. brucei 2T1 PYR6-5 −/−, 0.0031 ± 0.0004 µM. Further, the “fold resistance, B48 versus wild-type” value in the data set on T. brucei B48 (higher EC50 against multi-drug resistant strain B48) was 219 fold.

Regarding `CO[C@H]1/C=C/O[C@@]2(C)Oc3c(C)c(O)c4c(O)c(c(/C=N/N5CCN(C)CC5)c(O)c4c3C2=O)NC(=O)/C(C)=C\C=C\[C@H](C)[C@H](O)[C@@H](C)[C@@H](O)[C@@H](C)[C@H](OC(C)=O)[C@@H]1C` [Rifampicin, reference compound], the MIC is 1 µg/mL (≈ 1.22 µM) with M. tuberculosis H37Rv; 0.19 µM and 0.16 µg/mL in data set [1]; over 50 µg/mL in the data set on M. tuberculosis MS-115.

These data come from publication PMC6804079, “Investigation of 5’-Norcarbocyclic Nucleoside Analogues as Antiprotozoal and Antibacterial Agents” (Molecules, 2019).
